The values that follow come from publication PMC9181543, “Lysosomal Exocytosis of Olivacine on the Way to Explain Drug Resistance in Cancer Cells” (International Journal of Molecular Sciences, 2022).

As usually defined, the GI50 is the concentration at which growth is held to half of that of the control. Higher therefore signals less potent growth inhibition. For orientation: IC50 means the concentration that gives 50% inhibition. High values mean weaker potency in that assay, low ones greater potency in that assay.

Assay [1] concerns MCF-7 cells. The assay is described as follows: SRB assay (total protein content), MCF-7. Format: cell-based. To be noted: Homo sapiens, MCF7, 48 h incubation. Here is the method: (§1) The anticancer activity of tested compounds was assessed on five human cell lines selected from the panel of tumor cell lines recommended by the National Cancer Institute: A495 (lung carcinoma), CCRF/CEM (acute lymphoblastic leukemia), LoVo and LoVo/DX (two types of colorectal: non-resistant and resistant to doxorubicin), and MCF-7 (breast adenocarcinoma). In addition, the NHDF cell line (normal human dermal fibroblasts) was used to estimate cytotoxicity to noncancer cells. The A549, CCRF/CEM, LoVo, LoVo/DX, and MCF-7 cells were obtained from ECACC, and NHDF cells from LONZA, Belgium. The A549 and MCF-7 cells were grown in EMEM medium, CCRF/CEM cells in RPMI-1640, LoVo and LoVo/DX cells in DMEM/F-12, and NHDF cells in DMEM without phenol red. The cells were seeded in […] in the biological assay, as recommended by the National Cancer Institute. All culture media were supplemented with L-glutamine, penicillin, streptomycin, and 10% fetal bovine serum (FBS). Cells were incubated at 37 °C and 5% CO2. One of the most popular in vitro tests to evaluate the activity of compounds with potential antitumor activity is the SRB assay. The sulforhodamine B dye is used, which binds to the protein at the appropriate pH. The assay allows for assessing cell mass and, indirectly, their proliferation. The advantage of the assay is that it measures cellular protein content and not the activity of any enzymes. The SRB assay was carried out according to the National Cancer Institute procedure. Cells were incubated in a culture medium for 24 h in 96-well plates. After 24 h, the control plate for each cell line was fixed with TCA to evaluate cell culture before treatment with tested compounds. […] Cell cultures were then fixed by adding 50% TCA at 4 °C for 1 h. After removing the supernatant, the plates were washed with water and dried. […] Growth inhibition was calculated following the NCI guidelines and expressed as the GI50 ratio, i.e., the concentration of the compound in which the amount of protein was reduced by half compared with the control.
(Sulforhodamine B stains cellular protein and so reports cell mass.)

Assay [2] concerns LoVo cells. In words: SRB assay (total protein content), LoVo. Format: cell-based. To be noted: Homo sapiens, 48 h incubation. Here is the method:
as §1

The subject of assay [3] is LoVo/DX cells. In words: SRB assay (total protein content), LoVo/DX. To be noted: Homo sapiens, LoVo/DX cells (doxorubicin-resistant), 48 h incubation. The class given is cell-based. The procedure: as §1
The test system of assay [4] is CCRF/CEM cells. The assay is described as follows: SRB assay (total protein content), CCRF/CEM. The class given is cell-based. To be noted: Homo sapiens, 48 h incubation. The procedure:
as §1

Assay [5] has as its system NHDF cells. In words: SRB assay (total protein content), NHDF. Format: cell-based. The conditions noted are these: Homo sapiens, NHDF normal cells, 48 h incubation. Here is the method:
as §1

Assay [6] relates to A549 cells. The assay is described as follows: MTT assay (mitochondrial activity), A549. Format: cell-based. The conditions noted are these: Homo sapiens. The procedure: (§2) The anticancer activity of tested compounds was assessed on five human cell lines selected from the panel of tumor cell lines recommended by the National Cancer Institute: A495 (lung carcinoma), CCRF/CEM (acute lymphoblastic leukemia), LoVo and LoVo/DX (two types of colorectal: non-resistant and resistant to doxorubicin), and MCF-7 (breast adenocarcinoma). In addition, the NHDF cell line (normal human dermal fibroblasts) was used to estimate cytotoxicity to noncancer cells. The A549, CCRF/CEM, LoVo, LoVo/DX, and MCF-7 cells were obtained from ECACC, and NHDF cells from LONZA, Belgium. The A549 and MCF-7 cells were grown in EMEM medium, CCRF/CEM cells in RPMI-1640, LoVo and LoVo/DX cells in DMEM/F-12, and NHDF cells in DMEM without phenol red. The cells were seeded in […] in the biological assay, as recommended by the National Cancer Institute. All culture media were supplemented with L-glutamine, penicillin, streptomycin, and 10% fetal bovine serum (FBS). Cells were incubated at 37 °C and 5% CO2. An assessment of the mitochondrial cell activity after applying tested compounds was carried out using the test MTT assay, recommended in the ISO 10993-5:2009 standard. As in the SRB assay, the cells were exposed to tested compounds after 24 h of initial incubation in 96-well plates. The MTT solution (1 mg/mL) was added to each well, and cells were incubated for 2 h. Finally, the supernatant was removed, and the formazan crystals were dissolved in isopropanol. After 30 min, absorbance at 570 nm in Victor2 microplate reader (PerkinElmer). Cell viability was determined as the IC50 ratio, i.e., the concentration of the compound in which the viability was reduced by half compared with the control.
Background: Formazan colour is commonly taken as a measure of viable cells.

The test system of assay [7] is MCF-7 cells. The assay is described as follows: MTT assay (mitochondrial activity), MCF-7. Format: cell-based. The conditions noted are these: Homo sapiens, MCF7. The procedure:
as §2

In assay [8] the test system is LoVo cells. The assay is described as follows: MTT assay (mitochondrial activity), LoVo. The class given is cell-based. To be noted: Homo sapiens. The procedure:
as §2

Assay [9] relates to LoVo/DX cells. In words: MTT assay (mitochondrial activity), LoVo/DX. The class given is cell-based. To be noted: Homo sapiens, LoVo/DX cells (doxorubicin-resistant). Here is the method:
as §2

Assay [10] concerns CCRF/CEM cells. The assay is described as follows: MTT assay (mitochondrial activity), CCRF/CEM. Format: cell-based. The conditions noted are these: Homo sapiens. Here is the method:
as §2

In assay [11] the test system is NHDF cells. In words: MTT assay (mitochondrial activity), NHDF. To be noted: Homo sapiens, NHDF normal cells. The class given is cell-based. The procedure: as §2
The subject of assay [12] is A549 cells. In words: Proton pump blocking test (omeprazole) for lysosomal exocytosis. To be noted: 200 µM for 1 h before test compounds. Format: cell-based, human. The procedure:
To assess whether the exocytosis of olivacine and ellipticine from cancer cells is lysosomal, a proton pump blocking test was performed. Omeprazole was added into A549 cells at a concentration of 200 µM for 1 h. The cell culture was then washed twice with PBS, and the cells were treated with tested compounds. The cell culture was assessed using an Evos FL microscope. The lysosomes were stained using LysoTracker™ Deep Red kit (L12492; Invitrogen). Cultured cells were evaluated using an Evos FL microscope, taking photos every 15 min. After treatment with olivacine or olivacine and omeprazole, analysis of mean cell fluorescence was performed from five independent replicates. In addition, 14 pictures were taken from each replicate, and 100 cells were analyzed by photomicrography using the ImageJ platform.

Structures are written as SMILES.

Consider `COc1cccc2c1C(=O)c1c(O)c3c(c(O)c1C2=O)C[C@@](O)(C(=O)CO)C[C@@H]3O[C@H]1C[C@H](N)[C@H](O)[C@H](C)O1` [Doxorubicin], for which the concentration for 50% growth inhibition (GI50) in the assay on MCF-7 cells [1] amounted to 1.44 ± 0.23 µM; in the assay with LoVo cells [2] it was 1.62 ± 0.45 µM; with LoVo/DX cells [3], 14.1 ± 3.42 µM; with CCRF/CEM cells [4], 0.74 ± 0.02 µM; with NHDF cells [5], 13.7 ± 5.29 µM. For the same compound, the concentration for half-maximal inhibition (IC50) in the assay on A549 cells [6] turned out to be 13.8 ± 1.03 µM; in the assay on MCF-7 cells [7], 4.33 ± 0.55 µM; in the assay with LoVo cells [8], 10.2 ± 1.27 µM; with LoVo/DX cells [9] it was 86.4 ± 25.4 µM; in the assay with CCRF/CEM cells [10] it was 1.03 ± 0.02 µM; with NHDF cells [11], 18.2 ± 4.46 µM.
For the compound `COc1ccc2[nH]c([S+]([O-])Cc3ncc(C)c(OC)c3C)nc2c1` (stereo not drawn) [Omeprazole], the “effect on exocytosis of olivacine and ellipticine” value in the assay with A549 cells [12] is “protect against exocytosis”.
